The values below come from patent US8445533B2, “Andrographolide derivatives to treat viral infections” (Cornell Research Foundation, Inc., priority 2004, dated 2013).

≈ marks a conversion by molar mass, not a printed value. Like-named read-outs stand apart in the source and are kept apart here. Bounds are passed on as bounds.

In data set [1] the test system is HCV replicon subgenomic 1a. Kind of data set: HCV replicon SEAP reporter assay, subgenomic 1a. It counts as cell-based, hepatitis C virus. The following applies: 4 days. The protocol:
(§1) HCV replicon—SEAP (secreted alkaline phosphatase) cell lines have been described previously. Low passage cell stocks of cell lines stored frozen (−160° C.) were used in the assays. Serial dilutions of test compounds were made from initial stocks and each concentration plated in 96-well plates. Low passage HCV replicon-bearing cells were then trypsinized, counted and seeded into the wells. The plates were incubated at 37° C. in a CO2 incubator for 4 days. The culture supernatant was then removed from each well and heat inactivated for 30 min at 65° C. SEAP activity was measured and EC50 values calculated by comparing SEAP present in drug-treated and untreated wells. Cytotoxicity produced by compounds during screening was evaluated by MTT assay at the end of the incubation period.
(§2) Growth medium from each well was aspirated prior to the addition of lysis solution followed by vigorous pipetting. Each lysate was processed using DNase I treatment. Total RNA was eluted into orgainic carbon-free water and converted into cDNA enzymatically.

Data set [2] relates to HCV replicon subgenomic 1b Strain N. The experiment in a line: HCV replicon SEAP reporter assay, subgenomic 1b Strain N. The following applies: 4 days. It counts as cell-based, hepatitis C virus. On the procedure: as §1, §2
For orientation: Replicon systems follow genome replication, usually without infectious particles.

In data set [3] the test system is HCV replicon-bearing cells (subgenomic 1a). Kind of data set: MTT cytotoxicity in HCV replicon cells, subgenomic 1a. It counts as cell-based, human. The following applies: 4 days. On the procedure: as §1
The test system of data set [4] is HCV replicon-bearing cells (subgenomic 1b Strain N). Kind of data set: MTT cytotoxicity in HCV replicon cells, subgenomic 1b Strain N. Type of data set: cell-based, human. The following applies: 4 days. The protocol: as §1
Data set [5] relates to tumor cell lines. The following applies: cited from earlier work.
Data set [6] concerns proprotein convertase-1. The following applies: cited from earlier work.
In data set [7] the target is funin (Homo sapiens, UniProt P09958). The following applies: cited from earlier work.
Chain of funin (P09958 108-794): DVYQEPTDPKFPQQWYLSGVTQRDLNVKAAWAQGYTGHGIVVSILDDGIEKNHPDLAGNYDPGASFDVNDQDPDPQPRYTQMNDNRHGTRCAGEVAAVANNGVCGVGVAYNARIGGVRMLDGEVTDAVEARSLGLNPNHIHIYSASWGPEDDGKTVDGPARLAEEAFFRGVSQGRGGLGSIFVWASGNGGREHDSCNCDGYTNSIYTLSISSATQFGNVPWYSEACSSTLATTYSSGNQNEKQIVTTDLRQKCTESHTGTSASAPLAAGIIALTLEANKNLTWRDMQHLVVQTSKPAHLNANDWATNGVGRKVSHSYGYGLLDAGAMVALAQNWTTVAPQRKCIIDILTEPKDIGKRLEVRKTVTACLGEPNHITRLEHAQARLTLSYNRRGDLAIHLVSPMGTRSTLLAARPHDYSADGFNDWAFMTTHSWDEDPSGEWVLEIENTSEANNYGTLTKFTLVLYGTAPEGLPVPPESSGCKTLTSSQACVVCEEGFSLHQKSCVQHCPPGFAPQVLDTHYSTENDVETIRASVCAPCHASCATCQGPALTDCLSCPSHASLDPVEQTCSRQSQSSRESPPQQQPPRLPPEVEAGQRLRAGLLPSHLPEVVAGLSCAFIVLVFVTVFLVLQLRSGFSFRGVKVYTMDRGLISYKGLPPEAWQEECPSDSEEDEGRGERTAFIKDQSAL
The test system of data set [8] is KB. The following applies: cited from earlier work.
For data set [9], the system named is P388 lymphocytic leukemia. The following applies: cited from earlier work.
Data set [10] deals with isolated rat hepatocytes. The following applies: ex vivo isolated rat hepatocytes; cited from earlier work.
Data set [11] deals with proprotein convertase-7. The following applies: cited from earlier work.
The test system of data set [12] is cytopathogenic isolate of BVDV. Kind of data set: BVDV viral yield assay in woodchuck primary hepatocytes.
Text: (§3) Woodchuck primary hepatocyte cultures and hepatic cell lines were inoculated with a cytopathogenic isolate of BVDV.
Data set [13] in a line: in vitro. The following applies: woodchuck.
Text: as §3
Data set [14] deals with cytopathogenic isolate of BVDV. Kind of data set: BVDV antiviral assay in woodchuck hepatic cell line WCH-8.
Text: as §3
Data set [15] deals with HIV-1 (IIIB). The following applies: Chang et al. 1991; cited from earlier work.
For data set [16], the system named is uninfected NCL cells. Kind of data set: Cytotoxicity toward uninfected NCL cells (methylene blue assay). It counts as cell-based, bovine. The following applies: Example 2B.
Experimental: A method to measure visible cell numbers involved staining with methylene blue (Sigma, St. Louis, Mo.) and reading the absorbance of the stain in solution after elution from the cells. […] The methylene blue staining solution was removed from the cultures and the culture plates were rinsed in several volumes of H^2O. […] The absorbance of the methylene blue dye in solution was measured by an ELISA plate reader (Model EL311; Bio-Tek Instruments, Inc., Winooski, Vt.) at 630 nm. In all experiments described, calculation of cell numbers for each experimental data point was expressed as the average of three wells per experimental treatment (dilution, titer, or antiviral concentration).
Three quarters of both cpBVDV infected and uninfected cells were grown in the presence of antiviral compound. […] The medium was changed daily and cell killing was measured by the methylene blue assay 3 days post-infection with BVDV.
Cell killing due either to viral infection or to drug cytotoxicity was calculated for each experimental data point and plotted. […]
For data set [17], the system named is cpBVDV isolate NADL. The experiment in a line: BVDV antiviral assay in NCL bovine uterine cell line (viral-induced cell killing, viral yield). The following applies: Example 2B. The protocol: Derivatives of andrographolide were tested in an in vitro assay which measures the antiviral potential against a cytopathogenic isolate of BVDV in a permissive bovine uterine cell line.
The capacity to measure the effectiveness of compounds to reduce BVDV replication in vitro provides a system for preclinical assessment of potential drugs for treatment of viral infection and for analyzing possible mechanisms of action.
Cell lines were incubated in a humid atmosphere of 5% CO2 at 37° C. Cells were passaged by dissociation of the monolayer with a solution of trypsin-EDTA (Life Technologies), diluted in culture medium, and split 1:5 to new culture flasks.
A method to measure visible cell numbers involved staining with methylene blue (Sigma, St. Louis, Mo.) and reading the absorbance of the stain in solution after elution from the cells. […] The methylene blue staining solution was removed from the cultures and the culture plates were rinsed in several volumes of H^2O. The culture plates were allowed to air dry; this was followed by elution of the methylene blue stain from the fixed cells by incubation at controlled room temperature in a solution of PBS/50% ethanol and 1% acetic acid for 1 hour, with agitation. The absorbance of the methylene blue dye in solution was measured by an ELISA plate reader (Model EL311; Bio-Tek Instruments, Inc., Winooski, Vt.) at 630 nm. In all experiments described, calculation of cell numbers for each experimental data point was expressed as the average of three wells per experimental treatment (dilution, titer, or antiviral concentration).
The NCL cell line was grown to confluence and passaged to 96 well microtiter plates (Microtest™ 96; Becton Dickinson Labware, Franklin Lakes, N.J.), at a density of 2×10^4 cells/well (0.34 cm^2) and incubated for 1 hour to allow cell attachment. After attachment, the cells of one-half of each microtiter plate were inoculated with a cpBVDV stock diluted to yield a multiplicity of infection (m.o.i.) of 0.01 TCID50 and incubated for 3-6 hours to allow viral attachment and penetration. Following this incubation period, the inoculum was removed and replaced with fresh growth medium.
Three quarters of both cpBVDV infected and uninfected cells were grown in the presence of antiviral compound. The remaining quarter of the microassay plate served as positive (cpVDV infected) and negative (uninfected) control wells. The medium was changed daily and cell killing was measured by the methylene blue assay 3 days post-infection with BVDV.
The culture medium was collected on day 3 post-infection and the reduction in viral yield after antiviral treatment was determined. Supernatant collected from experimental wells was serially diluted ten-fold and used to infect newly prepared NCL cells. the end-point titer, the last dilution at which complete cell killing was evident, was determined in a similar 96 well format using the methylene blue assay for cell killing 5 days after infection.
Cell killing due either to viral infection or to drug cytotoxicity was calculated for each experimental data point and plotted. Regression analysis (curve fitting) was performed with SigmaPlot4.0 (Jandel Sci, San Rafael, Calif.) using the Regression Wizard library of equations which best fit the collected data.

Data set [18] deals with woodchuck primary hepatocytes. Kind of data set: Cytotoxicity in woodchuck primary hepatocytes.
Text: as §3
The subject of data set [19] is WCH-8 cells. The experiment in a line: Cytotoxicity in WCH-8 cells.
Text: as §3

As for `C[C@@]1(O)[C@H](O)[C@@H](CO)O[C@H]1n1ccc(N)nc1=O` [2′-MeC, B-D-2′-methyl-cytidine], the EC50 in [1] was 61.6 µM; in data set [2] it was 25.1 µM. Moreover, the half-inhibitory concentration (IC50) in [3] and in [4] was above 100 µM each time.

For `C=C1CCC2[C@](C)(CC[C@@H](O)[C@@]2(C)CO)C1/C=C/C1=CCOC1=O` (some centres unmarked) [14-deoxy-11,12-didehydroandrographolide], in data set [5], the cytotoxic activity entry was “no cytotoxic activity”.

On to `C=C1CC[C@@H]2[C@](C)(CO)[C@H](O)CC[C@@]2(C)[C@@H]1C/C=C1/C(=O)OC[C@H]1O` [Andrographolide], for which the enzyme inhibition result in data set [6], in data set [7] and in [11] was “relatively little enzyme inhibition” throughout. Besides, the cytotoxic activity result in data set [8] and in data set [9] was “significant cytotoxic activity” each time. The “protective activity against paracetamol-induced toxicity” value in [10] was “protective activity”.

As for `C=C1CC[C@@H]2[C@](C)(CO[C@@H]3O[C@H](CO)[C@@H](O)[C@H](O)[C@H]3O)CCC[C@@]2(C)[C@@H]1CCC1=CCOC1=O` [neoandrographolide], the cytotoxic activity result in data set [5] (tumor cell lines) was “no cytotoxic activity”.

On to `NC(=O)c1ncn([C@@H]2O[C@H](CO)[C@@H](O)[C@H]2O)n1` [ribavirin, reference compound], for which the tEC90 in data set [12] came to 2.9 µg/mL. This molecule also yielded a CC50 in data set [13] of 0.35 µg/mL (≈ 1.43 µM). Also, the EC50 in data set [14] (Bovine viral diarrhea virus isolates and strains, in Marmota monax, read-out: ckEC50) amounted to 0.27 µg/mL (≈ 1.11 µM).

Turning to “dehydroandrographolide succinic acid monoester [DASM]”, the “minimal concentration inhibitory to HIV-1 (IIIB)” value in data set [15] was 1.6 to 3.1 pg/mL.

Regarding interferon-α, the tEC90 in data set [12] worked out at 0.825 µg/mL; in data set [14] (WCH-8 cells) it was 64 ng/mL; in [17] (bovine uterine cell line) it was 0.15 ng/mL; in data set [17] (bovine uterine cell line, listed as IFN-α), 150 ng/mL. For the same molecule, the CC50 result in [16] (bovine uterine cell line), in data set [18] and in [19] was “≧1000 ng/ml” each time. For the same molecule, the “cytotoxicity, result in words” value in [16] (over the range tested) is “did not exhibit cytotoxicity over the range tested”; in data set [18] (over the range tested), “no cytotoxicity was observed over the range tested”; in [19] (up to a dose of 1000 ng/ml), “No cytotoxicity was observed”. For the same molecule, the results for the ckEC50 in data set [14] (WCH-8 cells) and in data set [17] (bovine uterine cell line) were 288 ng/mL and 0.0074 ng/mL, respectively. Besides, the “concentration range of reduction in viral-induced cell killing” value in data set [17] fell in the range of 0.1 to 1000 ng/mL. In addition, the “maximal reduction in viral-induced cell killing” value in data set [17] was 80%. Further, the “reduction in viral yields” value in data set [17] turned out to be 2 logs. Also, the “S.I. (CC50/EC90)” value in data set [17] (bovine uterine cell line) was 6667.

For orientation: IC50 means the concentration that gives 50% inhibition. A high value points to a need for much substance.
